Holding throughout (test): NCI anticancer screen, dose series, 48 h
For test [1], the system named is DU-145 prostate.
The test system of test [2] is M14 melanoma.
Test [3] has as its system SK-MEL-5 melanoma.
Test [4] concerns MOLT-4 leukemia.
Test [5] concerns RPMI-8226 leukemia.
Test [6] has as its system RXF 393 renal.
Test [7] relates to OVCAR-3 ovarian.
Test [8] has as its system UACC-257 melanoma.
Test [9] deals with SNB-19 CNS.
Test [10] relates to HOP-62 NSCLC.

“And” between values parts separate entries of the source, which are not always exact repeats. Equal values may be shown once.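 Grown in 96-well plates, cells were treated for 48 hours with each compound at five concentrations. Insufficient inhibition: endpoint recorded as highest concentration tested. Abbreviation: GI50, concentration required for 50% inhibition of growth. TGI: total growth inhibition.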

Regarding `COc1ccc(OC)c(-c2cc(-c3ccccc3)nn2-c2ccc(S(=O)(=O)NC(C)=O)cc2)c1`, the GI50 in [1] is 17.9 µM; in [2], 2.74 µM; in test [3] it was 11.8 µM; in test [4], 6.57 µM; in [5], 1.97 µM; in [6], 4.07 µM. In addition, in test [7], the GI50 is 2.82 µM. Also, the TGI in test [1] is 36.9 µM; in [2], 8.74 µM; in test [3], 26.8 µM; in test [4] it was above 100 µM; in test [5], 4.36 µM; in test [6] it was 9.31 µM. For the same compound, the TGI in [7] came out at 9.55 µM.

On to `COc1ccc2nc(-c3ccccc3)cc(Nc3cccc(/C(C)=N\O)c3)c2c1`, for which the GI50 is 6.46 µM in test [1]; 5.04 µM in test [2]; 19.4 µM in [8]; 32.9 µM in test [9]; 1.84 µM in test [10]; 13.2 µM in [3]. The GI50 was 6.18 µM in test [4] and 4.89 µM in [5]. In addition, the TGI in [1] was 31.9 µM; in [2], above 100 µM; in test [8], above 100 µM; in [9] it was above 100 µM; in test [10], 4.27 µM; in [3], 41 µM. The TGI in test [4] and in test [5] was above 100 µM each time.

Consider `Cc1cc2c(C(C)C)c(O)c(O)c(C=Nc3cc(C(F)(F)F)ccc3Cl)c2c(O)c1-c1c(C)cc2c(C(C)C)c(O)c(O)c(C=Nc3cc(C(F)(F)F)ccc3Cl)c2c1O`, for which the TGI in test [1] was above 100 µM; in test [2] it was above 100 µM; in test [8], above 100 µM; in test [9], above 100 µM; in test [10] it was above 100 µM; in test [3], 64.7 µM. For the same compound, the TGI was above 100 µM in [5], 97.7 µM in test [6] and above 100 µM in [7].

`COc1cc(-c2csc(NC(=O)c3cc(C(F)(F)F)cc(C(F)(F)F)c3)n2)cc(OC)c1OC`: the GI50 in test [1] is 3.62 µM; in test [2], 2.91 µM; in [9], 3.89 µM; in [10] it was 3.03 µM; in test [3], 1.47 µM; in [4], 1.92 µM. The results for the GI50 in [5], in test [6] and in [7] were 1.38 µM, 1.96 µM and 2.98 µM, respectively. Also, the TGI in test [1] is above 100 µM; in [2] it was above 100 µM; in [9] it was above 100 µM; in test [10], above 100 µM; in test [3] it was 3.11 µM; in [4], 4.98 µM. The TGI in test [5] was determined as 4.05 µM; in test [6], 8.94 µM; in [7], 19 µM.

On to `COc1cc(/C=C2\CN(C)CC3=C2Nc2nc(SC)[nH]c(=O)c2C3c2cc(OC)c(OC)c(OC)c2)cc(OC)c1OC` (configuration not stated), for which the GI50 in test [1] is 3.6 µM; in test [2], 2.98 µM; in test [8] it was 2.24 µM; in [9], 8.65 µM; in [10] it was 2.46 µM; in test [3], 2.83 µM. The GI50 in test [4] was 2.92 µM; in test [6] it was 1.81 µM; in test [7], 2.64 µM. Further, the TGI in test [1] was 12.1 µM; in test [2] it was 9.44 µM; in test [8] it was 7.63 µM; in [9], 21.9 µM; in test [10] it was 7.09 µM; in test [3] it was 11.9 µM. Besides, the TGI was found to be 88 µM in [4], 3.45 µM in test [6] and 6.72 µM in [7].

On to `CC(C)c1ccc2nc3ccc(C(=O)NCCN(C)C)cn3c(=O)c2c1`, for which the TGI in test [1] was above 100 µM; in test [2] it was 28.3 µM; in test [8] it was 27.8 µM; in [9], above 100 µM; in test [10] it was 31.4 µM; in test [3], 24.8 µM. In addition, the figures for the TGI in [4] and in test [7] were 49.8 µM and above 100 µM, respectively.

On to `CN1C2CC(C#N)C1C=CC2=O` (configuration not stated), for which the GI50 in [1] was 22.8 µM and 58.9 µM; in test [2], 15.9 µM and > 100 µM; in [10], 27.6 µM and > 100 µM; in [3], above 100 µM; in test [4], 15.7 µM and > 100 µM; in [6], 16.7 µM and > 100 µM. In addition, the GI50 in test [7] was 15.5 µM and > 100 µM. Further, the TGI in test [1] is 61.1 µM and > 100 µM; in [2], 30.7 µM and > 100 µM; in [9], above 100 µM; in test [10], 85.1 µM and > 100 µM; in [3] it was above 100 µM; in test [4], 68.7 µM and > 100 µM. The TGI in test [6] is 36.1 µM and > 100 µM; in [7] it was 30.7 µM and > 100 µM.

As to `CC1(C)C(=O)C(O)=CC2C1=CCC1C2(C)C(=O)CC2(C)C(C(C)(O)C(=O)CC(O)C(C)(C)O)C(O)CC12C` (configuration not stated), the TGI was 23.8 µM in test [2]; 30.2 µM in test [8]; 12.7 µM in test [9]; 11.5 µM in test [10]; 8.53 µM in [3]; above 81.8 µM in [4]. Besides, the results for the TGI in [5], in test [6] and in [7] were 19.1 µM, 5.54 µM and 10.2 µM, respectively.

Regarding `COc1ccc(-n2nnc3c(sc4ccccc43)c2=O)cc1`, the GI50 in [1], in [2], in test [8], in [3], in test [4] and in [5] was above 100 µM each time. Besides, the TGI in test [1], in [2], in test [8], in test [3], in [4] and in test [5] was above 100 µM throughout.

Consider `Cc1ccc(C(=O)/C(=C/c2ccc([N+](=O)[O-])cc2)S(=O)Cc2ccccc2)cc1` (configuration not stated), for which the GI50 in test [1] was 1.34 µM; in test [2], 1.48 µM; in test [8], 1.65 µM; in test [9] it was 1.55 µM; in [10], 2.02 µM; in test [3] it was 1.6 µM. The GI50 in [5] is 0.404 µM; in test [6], 1.47 µM; in test [7] it was 1.28 µM. Also, the TGI is 2.69 µM in test [1]; 2.94 µM in [2]; 3.08 µM in test [8]; 3.07 µM in test [9]; 4.46 µM in test [10]; 2.99 µM in test [3]. Moreover, the TGI in test [5] is 2.35 µM; in [6], 3 µM; in test [7], 2.57 µM.

The values are drawn from PubChem BioAssay (NCI).
